# Measurements reported in patent publication US5432165A, “Methods for the treatment of infection caused by Hepatitis B virus (HBV)” (priority 1992, dated 1995).
# Entries after “also recorded” stand apart in the source; their conditions may differ.
# Columns and labels:
# clinical = assay: clinical
# Protocol: Tolerance to the oral formulation of FIAU was evaluated in relatively healthy HIV-infected patients with Karnofsky performance scores ≥80 and ≥200 CD4 cells/mm^3. Sequential cohorts of ten patients were evaluated in an open and uncontrolled study design. […] Tolerance was determined with concurrent anti-emetic therapy (prochlorperazine or metoclopramide hydrochloride) as necessary for each patient.
# This study is an open label, uncontrolled trial. […] Tolerated doses could be studied in an additional five patient cohort of chronic hepatitis B patients, who were potentially more at risk of side effects. A month of post-treatment follow-up was provided for the hepatitis cohorts due to the known propensity of this disease to "flare" after therapy.
# Although not formally randomized, qualified patients were to be consecutively enrolled without regard to their disease severity, expected tolerance, or potential benefit of the dose being evaluated. Tolerance to a dose was defined as seven or more of the ten patients in a cohort individually meeting predefined tolerance criteria including successful completion of therapy and limits on changes in particular signs, symptoms and laboratory tests. Tolerance was determined with concurrent anti-emetic therapy for those patients requiring it. Criteria and regimens for such therapy were predefined.
# Weight loss was restricted to less than 10% in the past three months and serum CPK was required to be within the normal range.
# Patients were evaluated clinically at the screening visit, and on Days 1, 3, 7, 10, and 14. The hepatitis patients were additionally evaluated on Days 21 and 42. The blood chemistry and urinalysis tests were repeated additionally on Days 2 and 5.
# Clinical evaluations consisted of a physical exam, which included a test of lower extremity muscle strength, medical history, systems review, grading of non-laboratory signs and symptoms of toxicity, and listing of concomitant medications. Additionally, at visits with clinical evaluations after Day 1, any adverse experiences were recorded.
# At the screening visit a chest x-ray, electrocardiogram (ECG), HIV test, T cell profile (CD4 and CD8 counts), serum biochemistry, hematology, urinalysis and stool guaiac tests were obtained in addition to the clinical evaluation. Hematology tests consisted of hemoglobin, hematocrit, RBC, WBC and differential, platelet, reticulocyte count, MCV, MCHC and MCH. Urinalysis tests consisted of color, appearance, pH, specific gravity, bilirubin, protein, glucose, myoglobin, RBCs, WBCs, casts, crystals and bacteria. Serum biochemistry tests consisted of creatinine, uric acid, BUN, total bilirubin, AST, ALT, alkaline phosphatase, LDH, CPK, CPK-MB, glucose, total protein, albumin, globulin, calcium, phosphorus, potassium, sodium, chloride, bicarbonate and aldolase.
# The Baseline visit (Day 1) consisted of repeating the clinical evaluation, hematology, serum biochemistry, urinalysis, and stool guaiac tests, and T cell profile. Additionally at Baseline, archive plasma samples were taken. Plasma samples were taken two hours after each patient's first dose of FIAU (peak) and right before the second dose (trough). Thereafter, on Days 3, 7 and 14 additional peak and trough samples were obtained by taking the trough sample just before a patient took a dose of FIAU and the peak sample two hours later. These samples were analyzed by HPLC for levels of FIAU and FAU as low as 0.05 μg/ml for either compound.
# The Day 3 safety profile consisted of the clinical evaluation, hematology, serum biochemistry, urinalysis, stool guaiac tests and plasma samples for peak and trough levels of FIAU and its major metabolite FAU. On Day 7 patients underwent clinical evaluation, an ECG, peak and trough serum samples, T cell profile, and hematology, serum biochemistry, urinalysis, and stool guaiac tests. A clinical evaluation, hematology, serum biochemistry, and urinalysis tests were done on Day 10.
# CMV = settings: read-out: in vitro ED90; cited from earlier work
# [1] = Peak and trough plasma levels of FIAU and FAU by HPLC; assay type: in vivo, human; settings: for concentration at 24 h: FIAU trough plasma concentration
# Text: Additionally at Baseline, archive plasma samples were taken.
# [2] = Stability in an acid environment; assay type: physicochemical; settings: such as is found in the human stomach
# HSV-1 = settings: read-out: in vitro ED90; cited from earlier work
# [3] = month long TID dosing of FIAC; cited from earlier work
# [4] = typical; read-out: cellular toxicity concentration (ID50); cited from earlier work
# [5] = 1.0 mg/kg-day, non-hepatitis patients, p>0.07
# [6] = 1.0 mg/kg-day, ten non-hepatitis patients
# [7] = human, in vivo, po, 1 mg/kg/day, 24 h
structure (smiles),measurement,setting,value
"O=c1[nH]c(=O)n([C@@H]2O[C@H](CO)[C@@H](O)[C@@H]2F)cc1I [FIAU, 1-(2'-deoxy-2'-fluoro-β-D-arabinofuranosyl)-5-iodouracil]",tolerance of oral FIAU,"clinical; 1.0 mg/kg-day TID 14 days, HIV-infected patients (ten without chronic hepatitis B)",adequately tolerated
same,average AST value at end of therapy,"clinical; 1.0 mg/kg-day, non-hepatitis patients, baseline 23.4, p≤0.02",29.6
same,average ALT value at end of therapy,"clinical; 1.0 mg/kg-day, non-hepatitis patients, baseline 27.1, p≤0.02",42.3
same,average WBC count at end of therapy,"clinical; 1.0 mg/kg-day, non-hepatitis patients, baseline average 5,480, p=0.0746","4,920 cells/mm^3"
same,average loss of CD4 cells,"clinical; 1.0 mg/kg-day, non-hepatitis patients, non-significant",64 cells/mm^3
same,decrease in lymphocytes,clinical; [5],about 300 cells/mm^3
same,decrease in neutrophils,clinical; [5],about 300 cells/mm^3
same,patients requiring anti-emetic therapy,clinical; [6],four required anti-emetic therapy
same,patients with mild to moderate headache,clinical; [6],Five patients complained of mild to moderate headache
same,patients with mild to moderate nausea,clinical; [6],Eight patients experienced mild to moderate nausea
same,tolerance of oral FIAU,"clinical; 1.7 mg/kg-day, three non-hepatitis patients",not tolerated; also recorded: All three discontinued the study after two to eight days due to severe fatigue
same,MTD at 336 h,"clinical; human, in vivo, po, maximum tolerated dose of oral FIAU, HIV-infected population, TID for two weeks",≥ 1 mg/kg/day
same,EC90,CMV,~500 nM
same,"FIAU peak plasma concentration, range maximum","[1]; 1.0 mg/kg-day, steady state, Days 3-14",1.66 µg/mL
same,accumulation in the plasma with continued dosing,"[1]; FIAU 1.0 mg/kg-day, 14 days",Neither FIAU nor FAU tended to accumulate; also recorded: Neither compound tended to accumulate
same,"FIAU trough plasma value, typical","[1]; human, in vivo, po, 1 mg/kg/day",under 0.2 μg/ml
same,"FIAU peak plasma concentration, mean",[1]; [7],0.58 µg/mL
same,"FIAU trough plasma concentration, mean",[1]; [7],0.05 µg/mL
same,Cmax at 24 h,"[1]; human, in vivo, po, 1 mg/kg/day, FIAU peak plasma concentration, mean",580 ng/mL
same,Cmax at 2 h,"[1]; human, in vivo, po, 1 mg/kg/day, FIAU peak plasma value at steady state, average",~1000 ng/mL
same,concentration at 24 h,"[1]; human, in vivo, po, 1 mg/kg/day, mean",50 ng/mL
same,concentration at 24 h,"[1]; human, in vivo, po, 1 mg/kg/day, range maximum",130 ng/mL
same,stability in an acid environment,[2],stable in an acid environment
same,EC90,HSV-1,~50 nM
same,accumulation in the plasma,[3],"neither FIAC, FIAU, or their metabolites accumulated in the plasma"
same,CC50,[4],~10000 nM
